Measurements: paper PMC11052077, “Discovery of Dolutegravir Derivative against Liver Cancer via Inducing Autophagy and DNA Damage” (Molecules, 2024)

Key:
Huh7 cells = assay: CCK8 cell viability assay, Huh7; assay type: cell-based, human; conditions: for Cell Viability (100%), 20 μM, 48 h, Huh7: Huh7, CCK8, control taken as 100%; for IC50: 48 h, Huh7, CCK8, read-out: half maximal inhibitory concentration (IC50), Huh7
Experimental: (§1) This study aimed to assess the anti-proliferative activity of dolutegravir-1,2,3-triazole derivatives on hepatocellular carcinoma cell lines, Huh7 and hepG2. A comprehensive CCK8 assay was employed to evaluate the impact of these compounds on cell viability, with cells treated at a concentration of 20 μM for 48 h. HRM cells, a normal cell line, were included as a control for comparative analysis.
(§2) Human hepatocellular carcinoma cell lines Huh7 and hepG2 were obtained from ATCC (Manassas, VA, USA). Cells were cultured in DMEM or RPMI 1640 medium containing 10% FBS and 1% penicillin/streptomycin at 37 °C with a 5% CO2-humidified atmosphere.
(§3) CCK8 assay was used to measure cell viability. Cells with a density of 1 × 10^4 cells/well were seeded on 96-well plates. After adhesion, cells were treated with different diluted compounds or vehicle control DMSO and continued to be cultured for 48 h or 72 h, respectively. Then, CCK8 reagent was added for one hour incubation at 37 °C with 5% CO2. Absorbance was measured using a Microplate spectrophotometer (Thermo, Waltham, MA, USA) at 450 nm. The ratio of cell viability of control was taken as 100%. […] Then, IC50 of compounds were investigated using the prism statistical software 7.0.

[1] = system: HRM cells (human renal mesangial cells); assay: in vitro; assay type: cell-based; conditions: 20 µM
Experimental: This study aimed to assess the anti-proliferative activity of dolutegravir-1,2,3-triazole derivatives on hepatocellular carcinoma cell lines, Huh7 and hepG2. A comprehensive CCK8 assay was employed to evaluate the impact of these compounds on cell viability, with cells treated at a concentration of 20 μM for 48 h. HRM cells, a normal cell line, were included as a control for comparative analysis. […]
as §3

hepG2 cells = assay: CCK8 cell viability assay, hepG2; assay type: cell-based, human; conditions: for Cell Viability (100%), 20 μM, 48 h, hepG2: hepG2, CCK8, control taken as 100%; for IC50: 48 h, hepG2, CCK8, read-out: half maximal inhibitory concentration (IC50), hepG2
Experimental: as §1, §2, §3

Structure (SMILES) | Cell Viability (100%), 20 μM, 48 h, Huh7 (Huh7 cells) [%] | Cell Viability (100%), 20 μM, 48 h, HRM [1] [%] | Cell Viability (100%), 20 μM, 48 h, hepG2 (hepG2 cells) [%] | IC50 (Huh7 cells) [µM] | IC50 (hepG2 cells) [µM]
COc1c2n(cc(C(=O)Nc3cccc(-c4cn(-c5ccc(C(C)(C)C)cc5)nn4)c3)c1=O)CC1OCCC(C)N1C2=O (stereo not shown) [Compound 5n] | 54.04 | 108.06 | 77.30 | – | –
CCc1ccc(-n2cc(-c3cccc(NC(=O)c4cn5c(c(OC)c4=O)C(=O)N4C(C)CCOC4C5)c3)nn2)cc1 (stereo not shown) [Compound 5m] | 36.41 | 101.13 | 77.30 | – | –
COc1c2n(cc(C(=O)Nc3cccc(-c4cn(-c5ccccc5OC(F)(F)F)nn4)c3)c1=O)CC1OCCC(C)N1C2=O (stereo not shown) [Compound 5i] | 7.95 | 70.03 | 24.84 | 12.3 ± 0.26 | 9.43 ± 0.7
COc1cccc(Cn2cc(-c3cccc(NC(=O)c4cn5c(c(OC)c4=O)C(=O)N4C(C)CCOC4C5)c3)nn2)c1 (stereo not shown) [Compound 6d] | 72.78 | 98.59 | 65.65 | – | –
COc1cc([N+](=O)[O-])ccc1-n1cc(-c2cccc(NC(=O)c3cn4c(c(OC)c3=O)C(=O)N3C(C)CCOC3C4)c2)nn1 (stereo not shown) [Compound 5b] | 110.94 | 112.94 | 93.94 | – | –
COc1ccc(-n2cc(-c3cccc(NC(=O)c4cn5c(c(OC)c4=O)C(=O)N4C(C)CCOC4C5)c3)nn2)cc1OC (stereo not shown) [Compound 5j] | 65.52 | 108.54 | 77.13 | – | –
COc1c2n(cc(C(=O)Nc3cccc(-c4cn(Cc5ccccc5)nn4)c3)c1=O)CC1OCCC(C)N1C2=O (stereo not shown) [Compound 6b] | 68.00 | 99.53 | 57.81 | – | –
COc1c2n(cc(C(=O)Nc3cccc(-c4cn(-c5ccccc5Br)nn4)c3)c1=O)CC1OCCC(C)N1C2=O (stereo not shown) [Compound 5u] | 33.46 | 100.10 | 47.16 | 12.6 ± 0.58 | 34.7 ± 5.13
COc1c2n(cc(C(=O)Nc3cccc(-c4cn(Cc5cccc(Br)c5)nn4)c3)c1=O)CC1OCCC(C)N1C2=O (stereo not shown) [Compound 6e] | 20.45 | 102.27 | 55.14 | 16.2 ± 0.37 | 19.7 ± 2.19
COc1c2n(cc(C(=O)Nc3cccc(-c4cn(Cc5cc(Br)cc(Br)c5)nn4)c3)c1=O)CC1OCCC(C)N1C2=O (stereo not shown) [Compound 6a] | 75.97 | 84.46 | 66.48 | – | –
COc1c2n(cc(C(=O)Nc3cccc(-c4cn(Cc5ccccc5C)nn4)c3)c1=O)CC1OCCC(C)N1C2=O (stereo not shown) [Compound 6g] | 39.11 | 101.52 | 52.95 | – | –
COc1c2n(cc(C(=O)Nc3cccc(-c4cn(-c5ccccc5Cl)nn4)c3)c1=O)CC1OCCC(C)N1C2=O (stereo not shown) [Compound 5v] | 37.66 | 95.10 | 38.75 | 42.2 ± 1.1 | 24.8 ± 2.21
COc1c2n(cc(C(=O)Nc3cccc(-c4cn(-c5ccccc5I)nn4)c3)c1=O)CC1OCCC(C)N1C2=O (stereo not shown) [Compound 5w] | 49.87 | 92.77 | 54.35 | 15.9 ± 0.31 | 25.7 ± 0.42
COc1c2n(cc(C(=O)Nc3cccc(-c4cn(Cc5ccccc5F)nn4)c3)c1=O)CC1OCCC(C)N1C2=O (stereo not shown) [Compound 6f] | 54.58 | 102.19 | 63.23 | – | –
COc1c2n(cc(C(=O)Nc3cccc(-c4cn(Cc5ccccc5Br)nn4)c3)c1=O)CC1OCCC(C)N1C2=O (stereo not shown) [Compound 6c] | 39.13 | 105.55 | 46.80 | 13.9 ± 0.81 | 27.8 ± 2.94
COc1c2n(cc(C(=O)Nc3cccc(-c4cn(-c5ccc(C(F)(F)F)cc5)nn4)c3)c1=O)CC1OCCC(C)N1C2=O (stereo not shown) [Compound 5d] | 77.89 | 108.43 | 79.96 | – | –
COc1c2n(cc(C(=O)Nc3cccc(-c4cn(-c5cc(C(F)(F)F)cc(C(F)(F)F)c5)nn4)c3)c1=O)CC1OCCC(C)N1C2=O (stereo not shown) [Compound 5r] | 80.13 | 101.27 | 78.52 | – | –
COc1c2n(cc(C(=O)Nc3cccc(-c4cn(-c5ccccc5C(F)(F)F)nn4)c3)c1=O)CC1OCCC(C)N1C2=O (stereo not shown) [Compound 5c] | 36.28 | 2.65 | 54.14 | 18.7 ± 0.53 | 18.3 ± 1.14
COc1c2n(cc(C(=O)Nc3cccc(-c4cn(-c5ccc(F)cc5)nn4)c3)c1=O)CC1OCCC(C)N1C2=O (stereo not shown) [Compound 5g] | 90.24 | 103.67 | 105.19 | – | –
COc1c2n(cc(C(=O)Nc3cccc(-c4cn(-c5cc(C(F)(F)F)ccc5C(F)(F)F)nn4)c3)c1=O)CC1OCCC(C)N1C2=O (stereo not shown) [Compound 5q] | 12.00 | 91.40 | 38.49 | 7.85 ± 0.9 | 18.5 ± 2.85
COc1c2n(cc(C(=O)Nc3cccc(-c4cn(-c5ccccc5F)nn4)c3)c1=O)CC1OCCC(C)N1C2=O (stereo not shown) [Compound 5a] | 83.32 | 71.18 | 90.43 | – | –
COc1c2n(cc(C(=O)Nc3cccc(-c4cn(-c5ccccc5)nn4)c3)c1=O)CC1OCCC(C)N1C2=O (stereo not shown) [Compound 5o] | 67.64 | 100.28 | 80.21 | – | –
